Source: US20230285434A1 (priority 2020, published 2023)
“And” between values parts separate entries of the source, which are not always exact repeats. Equal entries are not always repeated. Structures can show the parent of a compound that is named as a salt.

What was measured:
[1] = system: Lassa virus; test: microbe, parasite or virus in culture; format: cell-based
[2] = system: Lassa virus; test: microbe, parasite or virus in culture; format: cell-based; settings: Mammarenavirus lassaense, Vero C1008
[3] = Mammarenavirus lassaense, Huh-7

## NC(=O)c1cn([C@@H]2O[C@H](CO)[C@@H](O)[C@H]2O)c2ncnc(N)c12 [Oya1, 4-amino-7-((2R,3R,4S,5R)-3,4-dihydroxy-5-(hydroxymethyl)tetrahydrofuran-2-yl)-7H-pyrrolo[2,3-d]pyrimidine-5-carboxamide]
[1]; 0.0047 µM
  Inhibition: 33.96% and 28.083% and 24.36% and 25.62% and 25.65%
[1]; 0.0094 µM
  Inhibition: 26.74% and 30.9% and 23.28% and 15.83% and 22.14% and 20.065%
[1]; [3]
  inhibition at 0.0047 µM: 32.3%
  inhibition at 0.15 µM: 79.9%
  inhibition at 0.3 µM: 97.6%
  inhibition at 0.6 µM: 98.8%
[2]
  inhibition at 0.075 µM: 89.2%
  inhibition at 0.15 µM: 100%
  inhibition at 0.3 µM: 101%
  inhibition at 0.6 µM: 101%

## Cl.NC(=O)c1cn([C@@H]2O[C@H](CO)[C@@H](O)[C@H]2O)c2ncnc(N)c12 [Oya2, 4-amino-7-((2R,3R,4S,5R)-3,4-dihydroxy-5-(hydroxymethyl)tetrahydrofuran-2-yl)-7H-pyrrolo[2,3-d]pyrimidine-5-carboxamide hydrochloride]
[1]; 0.0047 µM, hydrochloride
  Inhibition: 28.74% and 26.14% and 27.5%
[1]; 0.0094 µM, hydrochloride
  Inhibition: 21.1% and 20.68% and 22.57%

## CN(C)CCOc1ccc(/C(=C(/CCCl)c2ccccc2)c2ccccc2)cc1 [Toremifene citrate, reference compound]
[1]; 0.4688 µM
  Inhibition: 31.7829% and 32.93% and 31.98% and 27.3% and 32.75%
[1]; 0.9375 µM
  Inhibition: 22.38% and 19.16% and 30.38% and 25.19% and 18.19%
[1]; 1.875 µM
  Inhibition: 18.84% and 15.13% and 24.79% and 16.6% and 19.82%
[1]; 3.75 µM
  Inhibition: 15.93% and 10.32% and 20.17% and 17.07% and 18.53%
[1]; [3]
  inhibition at 0.4688 µM: 37.4%
  inhibition at 0.9375 µM: 29.9%
  inhibition at 1.875 µM: 20.9%
  inhibition at 3.75 µM: 16.3%
